Marks after values point to notes of the source that are not given here.
How the values were obtained:
[1] = 1H NMR protocol: decomposition of the compounds and relative product yields in aqueous solution; assay type: physicochemical; settings: for Carboxylic Acid relative product yield / NHPY relative product yield / PY (corresponding pyrazolone) relative product yield: decomposition in aqueous solution, 1H NMR
From the text: A ^1H NMR spectroscopy protocol was used to examine the decomposition of the compounds of the disclosure and measure the relative product yields in aqueous solution (Guthrie, D. A.; Ho, A.; Takahashi, C. G.; Collins, A.; Morris, M.; Toscano, J. P. J. Org. Chem. 2015, 80, 1338-1348; and Guthrie, D. A.; Nourian, S.; Takahashi, C. G.; Toscano, J. P. J. Org. Chem. 2015, 80, 1349-1356).

[2] = 1H NMR mechanistic study: decomposition of Compound 1 in the presence of 3,4-dimethyl-1-phenylpyrazolone (PY-2); assay type: physicochemical; settings: 0.5 mM compound with 0.5 mM PY-2, 0.25 M phosphate buffer, 0.2 mM DTPA, pH 7.4, 37° C., argon
Experimental: A ^1H NMR Spectroscopy Protocol was used to confirm the formation of nitroso carbonyls following decomposition of Compound 1. In this protocol, 0.5 mM Compound 1 was incubated in the presence of 0.5 mM 3,4-dimethyl-1-phenylpyrazolone in 0.25 M phosphate buffer with 0.2 mM DTPA at pH 7.4, 80% H2O, 10% D2O, and 10% DMSO-d6 at 37° C. under argon. Spectra were collected at the start of the experiment and after complete decomposition.

[3] = UV-Vis protocol: decomposition kinetics, donor half-lives at pH 7.4 and 37° C.; assay type: physicochemical; settings: buffer, pH 7.4, 37° C.
Experimental: A UV-VIS protocol was used to determine the decomposition kinetics of Compounds 1-5. According to this protocol, decomposition of the test compound was monitored by UV-Vis spectroscopy to measure donor half-lives at pH 7.4 and 37° C. (Guthrie, D. A.; Kim, N. Y.; Siegler, M. A.: Moore, C. D.; Toscano, J. P. J. Am. Chem. Soc. 2012, 134, 1962-1965; and Guthrie, D. A.; Ho, A.; Takahashi, C. G.; Collins, A.; Morris, M.; Toscano, J. P. J. Org. Chem. 2015, 80, 1338-1348).

[4] = Nitroxyl production via N2O quantification in the headspace (GC), relative to Angeli's salt standard; assay type: physicochemical; set-up: key to % HNO: Stable; settings: for % HNO: N2O yield relative to AS standard, phosphate buffer with DTPA, 37° C.
From the text: Nitrous oxide (N2O) is produced via the dimerization and dehydration of HNO, and is the most common marker for nitroxyl production (Fukuto et al., Chem. Res. Toxicol. 18:790-801 (2005)). […] Using either nitrous oxide gas or Angeli's salt (“AS”) as a standard, the relative amounts of N2O released from compounds of the disclosure is examined via gas chromatography (“GC”) headspace analysis.
Another procedure for determining N2O released from compounds of the disclosure is as follows. A Varian CP-3800 instrument equipped with a 1041 injector, electron capture detector, and a 25 m 5 Å molecular sieve capillary column was applied for the analysis of nitrous oxide (N2O). Grade 5.0 nitrogen was used as both the carrier (8 mL/min) and the make-up (22 mL/min) gas. For all measurements, the column oven temperature was kept constant at 150° C., and the injector oven and the detector oven were held at 200° C. and 300° C., respectively. A 100 μL gastight syringe with a sample-lock was used for all gas injections. Samples were prepared in 6 mL Wheaton Clr headspace vials with volumes pre-measured for sample uniformity (actual vial volume ranges from 5.8-6.3 mL). Vials were charged with 3 mL of phosphate buffer containing the metal chelator, diethylenetriaminepentaacetic acid (DTPA), and fit with rubber septa and 20 mm aluminum seals. The vials were purged with argon and equilibrated for at least 10 minutes at 37° C. in a dry block heater. A stock solution of Angeli's salt (AS) was prepared in 10 mM sodium hydroxide, and compounds of the disclosure (10 mM) were prepared in acetonitrile and used immediately after preparation. 30 μL of the stock solutions was transferred into vials using a gastight syringe, yielding final concentrations of 0.5, 0.1, and 0.02 mM. Substrates were then incubated long enough to ensure complete decomposition and equilibration of N2O with the headspace. Depending on the concentration of the compound of the disclosure, 60 or 20 μL of the headspace was sampled and injected three times using a gastight syringe with a sample lock. The N2O yield was averaged and reported relative to the AS standard.

[5] = Stability of NHPY-1 incubated with PY-2 by 1H NMR spectroscopy; assay type: physicochemical; settings: 1H NMR spectroscopy at pH 7.4 and 10
From the text: Based on reactivity studies of bis-heteroatom-substituted amides (Glover, S. A. In The Chemistry of Hydroxylamines, Oximes, and Hydroxamic Acids, Part 2; Rappoport, Z., Liebman, J. F., Eds.; John Wiley & Sons: Chichester, West Sussex, 2009, p 839-923), the formation of NHPY-1 may be possible through the direct attack of PY-2 on the amide nitrogen of the hydroxamic acid moiety of […] (Scheme 4).

[6] = cited from earlier work

Compound	Carboxylic Acid relative product yield [1]	NHPY relative product yield [1]	PY (corresponding pyrazolone) relative product yield [1]	NHPY-1 yield from decomposition of Compound 1 ([1]; in the absence of PY-2)	acetate yield from decomposition of Compound 1 ([1]; in the absence of PY-2)	formation of NHPY-1 upon decomposition [2]	formation of NHPY-1 upon decomposition ([2]; listed as Compound I)	half-life ([3]; UV-Vis spectroscopy)	% HNO ([4]; 20 μM compound)	% HNO ([4]; 100 μM compound)	% HNO ([4]; 500 μM compound)	HNO yield from decomposition of Compound 1 ([4]; in the absence of PY-2)	half-life [3]	stability on incubation with PY-2 [5]	pKa [6]
CO/N=C(\C)C1(ONC(C)=O)C(=O)N(c2ccccc2)N=C1C (stereo not drawn) [Compound 1, N-((4-(1-(methoxyimino)ethyl)-3-methyl-5-oxo-1-phenyl-4,5-dihydro-1H-pyrazol-4-yl)oxy)acetamide]	73	26	74	26%	73%	not formed	quantitative	25 min	91%	75%	70%	70%			
CC(=O)NOC1(C)C(=O)N(c2ccccc2)N=C1C (stereo not drawn) [Compound 2, N-((3,4-dimethyl-5-oxo-1-phenyl-4,5-dihydro-1H-pyrazol-4-yl)oxy)acetamide]									a	a	a				
CO/N=C(\C)C1(ONC(=O)OC)C(=O)N(c2ccccc2)N=C1C (stereo not drawn) [Compound 3, methyl (4-(1-(methoxyimino)ethyl)-3-methyl-5-oxo-1-phenyl-4,5-dihydro-1H-pyrazol-4-yl)oxycarbamate]	27	72	28						41%	29%	20%		0.6 min		
CO/N=C(\C)C1(ONC(=O)OC)C(=O)N(C)N=C1C (stereo not drawn) [Compound 4, methyl (4-(1-(methoxyimino)ethyl)-1,3-dimethyl-5-oxo-4,5-dihydro-1H-pyrazol-4-yl)oxycarbamate]	14	86	14					1.2 min	29%	17%	8%				
CO/N=C(\C)C1(ONC(=O)OC(C)(C)C)C(=O)N(c2ccccc2)N=C1C (stereo not drawn) [Compound 5, tert-butyl (4-(1-(methoxyimino)ethyl)-3-methyl-5-oxo-1-phenyl-4,5-dihydro-1H-pyrazol-4-yl)oxycarbamate]									35^c %	26%					
CON=C(C)C1(N(O)C(C)=O)C(=O)N(c2ccccc2)N=C1C (stereo not drawn) [NHPY-1, N-hydroxy-N-(4-(1-(methoxyimino)ethyl)-3-methyl-5-oxo-1-phenyl-4,5-dihydro-1H-pyrazol-4-yl)acetamide]														stability was confirmed	10.0

Source: patent publication US10913728B2, “O-substituted hydroxamic acids” (The Johns Hopkins University, priority 2016, dated 2021)
